According to US20240207409A1, “ORAL DELIVERY OF OLIGONUCLEOTIDES” (CiVi Biopharma, Inc., priority 2021, published 2024):
Where two headings read alike, the source gives them in different places. {GalNAc3NHC6} = trivalent GalNAc moiety with NHC6 linker, (GalNAc3)(NHC6); l = locked nucleic acid (LNA); d = 2'-deoxy (DNA)

Columns and labels:
[1] = Oral capsule PK study of an oligo against Factor VII, with or without GalNAc, using 5-CNAC as carrier (Example 6); format: in vivo, Cynomolgus monkey; conditions: for PK parameters compared to the corresponding CIVI 008 oligos: with and without GalNac
Method: (§1) Study outline: Dry blended capsules (20 mg Factor FVII with or without GalNac/200 mg 5-CNAC) were manufactured from uniform dry blended formulations, that were filled into enterically coated Size 0, hard shell gelatin capsules. A total of 10 Cynomolgus monkeys (5 males and 5 females) were each administered a single capsule of either oligo by oral gavage, and blood samples for PK analysis were drawn pre-dose and 0.5, 1.5, 3 and 5 hours post-dosing.

plasma LDL-cholesterol = experiment: Plasma LDL-cholesterol after daily oral CIVI 008/SNAC capsules for 42 days and recovery (Example 1); format: in vivo, Cynomolgus monkey; conditions: for LDL-c in control animals: control capsules, throughout the study
Method: (§2) Toxicity results: The study was conducted to GLP standards and monitored the following toxicity parameters throughout the study (pre-dose, day 14, 29, 42, and end of recovery): • Hematology: red blood cell (erythrocyte) count, hemoglobin, hematocrit, mean corpuscular volume, mean corpuscular hemoglobin, mean corpuscular hemoglobin, concentration, red cell distribution width, absolute reticulocyte count, platelet count, white blood cell (leukocyte) count, absolute neutrophil count, absolute lymphocyte count, absolute monocyte count, absolute eosinophil count, absolute basophil count, absolute large unstained cell count, blood smear. • Clinical chemistry, PCSK9 and lipids: urea nitrogen, creatinine, total protein, albumin, globulin, albumin:globulin ratio, total bilirubin, aspartate aminotransferase, alanine aminotransferase, alkaline phosphatase, gamma glutamyltransferase, creatine kinase, calcium, inorganic phosphorus, sodium, potassium, chloride, high density lipoproteins, low density lipoprotein, very low density lipoprotein, total cholesterol, triglycerides.

PCSK9 = PCSK9 reduction after daily oral CIVI 008/SNAC capsules for 42 days (Example 1); format: in vivo, Cynomolgus monkey; conditions: daily oral for 42 days
Method: as §2

[2] = Oral capsule PK study of CIVI 008 without GalNAc using 5-CNAC as carrier (Example 5); format: in vivo, Cynomolgus monkey; conditions: single oral capsule, 20 mg/200 mg 5-CNAC; larger
Description: As shown in previous Examples 1 and 3, orally dosed CIVI 008 with GalNAc is rapidly internalized in the liver by the GalNAc receptor, with very little CIVI 008 escaping into general circulation at doses below that required for saturation of the GalNAc receptor. In many instances the objective is to target genes that are expressed in organs other than the liver. […] The objective of this study was to determine the systemic exposure of orally administered CIVI 008 without the GalNAc conjugate, and to compare the exposure to that of a similar oral dose of CIVI 008 with GalNAc.
as §1, with “CIVI 008” for “Factor FVII with or”, “GalNAc/200” for “GalNac/200”, “capsule” for “capsule of either oligo”

[3] = cynomolgus monkey, in vivo, po
Method: The objectives of this study were to evaluate the toxicity and reversibility of CIVI 008 and to determine the pharmacology, plasma exposure and target organ accumulation of CIVI 008 when administered daily by oral capsule to the Cynomolgus monkey of Mauritian origin for 42 days compared to administration by the subcutaneous route administered once every two weeks (investigated previously).
Oral Capsule: Capsules containing CIVI 008 (10 mg)/SNAC (100 mg) were manufactured as uniform dry blend formulations, that were filled into Size 4 hard shell gelatin capsules that were enterically coated post fill.

[4] = Liver and intestinal tissue concentrations of CIVI 008 (Example 1); format: in vivo, Cynomolgus monkey
Description: The purpose of this study was to provide information on the capsule dosing of CIVI 008 for further clinical trials in humans.

[5] = Half-life and accumulation of CIVI 008 in the liver; format: in vivo, non-human primates; conditions: expected after 7-weeks of once daily dosing
[6] = Oral capsule toxicokinetic study of CIVI 008 using 5-CNAC as carrier (Example 3); format: in vivo, Cynomolgus monkey; conditions: for increase of AUC with dose of CIVI 008 / increase of Cmax with dose of CIVI 008: constant dose of 5-CNAC
Description: The objectives of this study were to determine the ability of 5-CNAC [Disodium N-(5-Chorosalicyloyl)-8-aminocaprylate] to facilitate oral uptake of CIVI 008 and to determine the manufacture method and dosing paradigm of CIVI 008/5-CNAC capsules that provide the most efficient oral uptake of CIVI 008 when administered to Cynomolgus monkeys of Mauritian origin.
Study outline: A total of 10 Cynomolgus monkeys (5 males and 5 females) were each dosed with 2 group A capsules on Monday and Wednesday in week 1, followed by 4 days of dosing holiday. This Monday and Wednesday dosing scheme was continued in weeks 2, 3, 5, 6, 7, 8, 13, 14, 15 and 17 using 2 group B-capsules per dose occasion in week 2, and 1 capsule of groups C to K per dose occasion in their respective weeks. During the dosing period, blood samples for PK analysis were drawn pre-dose and 0.5, 1.5, 3 and 5 hours post-dosing on Mondays and Wednesdays. Samples for clinical chemistry and hematology (see example 1) were taken pre-study and end of study.

[7] = Repeat-dose toxicity study to GLP standards, oral capsule (Example 1); conditions: cynomolgus monkey, in vivo
Method: as §2

[8] = single oral capsule, 20 mg/200 mg 5-CNAC
[9] = single oral capsule, 20 mg/200 mg 5-CNAC, higher
[10] = dose increased further than 25 mg
[11] = oral, two group A capsules (each 10 mg CIVI 008/100 mg 5-CNAC, size 4)
[12] = size 4 (group A) to size 0 (group B) capsules

For “unconjugated Factor FVII oligo: 13 nt ASO against Factor VII, SEQ ID NO 158, GbsCbsdAsdCsdCsdAsdCsdGsdGsdTsCbsCbsAb (antisense GCACCACGGTCCA; sugars from the 5' end l2 d8 l3, all phosphorothioate, methylation of C not given here)”, which “concentrations in the plasma” value [1, 8] is on record?
The value was “measurable concentrations”.

And the “AUC relative to the GalNac conjugated Factor FVII oligo” value [1, 9]?
Its value is roughly 3.5 fold.

And the “Cmax relative to the GalNac conjugated Factor FVII oligo” value [1, 9]?
Its value is roughly 3.5 fold.

What about the “PK parameters compared to the corresponding CIVI 008 oligos” value [1] of the same compound?
Its value is “quite similar”.

With “GalNac conjugated Factor FVII oligo: 13 nt ASO against Factor VII, SEQ ID NO 158, with (GalNAc3)(NHC6) moiety (antisense GCACCACGGTCCA; sugars from the 5' end l2 d8 l3, all phosphorothioate, 5' {GalNAc3NHC6}*, methylation of C not given here)” as the compound, how does the “concentrations in the plasma” value [1, 8] read?
Its value is “measurable concentrations”.

And the “PK parameters compared to the corresponding CIVI 008 oligos” value [1]?
The value was “quite similar”.

What does the source list for `O=C([O-])CCCCCCCNC(=O)c1ccccc1O.[Na+]` [SNAC, sodium 8-(2-hydroxybenzamido)octanoate, reference compound]?
LDL-c in control animals (plasma LDL-cholesterol): fluctuated around baseline values; mean PCSK9 reductions in control animals (PCSK9): comparatively small

What does the source list for “CIVI 008 without GalNAc: 16 nt LNA gapmer AbsAbsTbsdGsdCsdTsdAsdCsdAsdAsdAsdAsdCsCbsCbsAb, SEQ ID NO 134, no GalNAc moiety (AATGCTACAAAACCCA; sugars from the 5' end l3 d10 l3, all phosphorothioate, methylation of C not given here)”?
AUC relative to a similar dose of CIVI 008 with GalNac [2]: ~8 fold; Cmax relative to a similar dose of CIVI 008 with GalNac [2]: ~8 fold

Which “form of CIVI 008 detected in plasma (HPLC peak)” value [3] does the source give for “CIVI 008: GalNac conjugated LNA-gapmer antisense oligonucleotide targeting PCSK9 (SEQ ID NO: 134), cepadacursen formulated for oral administration (AATGCTACAAAACCCA; LNA gapmer with GalNAc conjugate, pattern not given here)” here?
Its value is “mixture of parent compound and metabolites”.

What about the “form of CIVI 008 detected in plasma (HPLC retention time)” value [3] of the same compound?
The value was “absorbed intact”.

What about the “mean Tmax” value [3] of the same compound?
The value was no more than 30 min.

What about the “concentrations of CIVI 008 in intestinal segments” value ([4]; all segments, after QD oral dosing for 42 days) of the same compound?
Its value is “measurable concentrations”.

And the “concentration of CIVI 008 in the liver during the recovery period” value ([4]; declined during recovery, 3-week timepoint)?
Its value is “still present in measurable quantities”.

And the “difference in liver concentrations between the SQ and PO arms” value ([4]; measured at the end of the dosing period)?
The value was “approximately one”.

And the “LDL-c in control animals” value (plasma LDL-cholesterol)?
The value was “fluctuated around baseline values”.

What about the “return of LDL to baseline” value (plasma LDL-cholesterol; end of recovery) of the same compound?
The value was “had yet to fully return to baseline”.

What about the “LDL levels after the end of dosing” value (plasma LDL-cholesterol; recovery period after 42 days of dosing) of the same compound?
The value was “maintained for two weeks post-dosing”.

And the “liver concentration relative to its steady state level” value [5]?
Its value is greater than 80%.

And the “mean PCSK9 reductions in control animals” value (PCSK9)?
Its value is “comparatively small”.

And the “increase of AUC with dose of CIVI 008” value [6, 10]?
Its value is “more than dose proportional”.

And the “increase of Cmax with dose of CIVI 008” value [6, 10]?
The value was “more than dose proportional”.

And the “increase of AUC with dose of CIVI 008” value ([6]; up to 25 mg CIVI 008)?
Its value is “dose proportionally”.

And the “increase of Cmax with dose of CIVI 008” value ([6]; up to 25 mg CIVI 008)?
The value was “dose proportionally”.

And the “AUC profiles, dry blended vs freeze-dried capsules” value ([6]; dose range 5 mg to 30 mg)?
The value was “very similar”.

What about the “Cmax profiles, dry blended vs freeze-dried capsules” value ([6]; dose range 5 mg to 30 mg) of the same compound?
The value was “very similar”.

What about the “effect of manufacture method on intestinal absorption” value ([6]; dry blending vs co-dissolution followed by freeze-drying) of the same compound?
Its value is “did not appear to affect”.

And the “AUC0-5 with 5-CNAC carrier compared to a similar dose using SNAC as carrier” value ([6]; oral capsules, vs Example 1)?
The value was “increase”.

What about the “Cmax with 5-CNAC carrier compared to a similar dose using SNAC as carrier” value ([6]; oral capsules, vs Example 1) of the same compound?
The value was “increase”.

What about the “concentrations of CIVI 008 in the plasma” value [6, 11] of the same compound?
Its value is “measurable concentrations”.

What about the “mean Tmax” value [6, 11] of the same compound?
The value was no more than 30 min.

And the “mean Tmax on increasing capsule size” value [6, 12]?
The value was “didn't change”.

What about the “mean plasma PK profile on increasing capsule size” value [6, 12] of the same compound?
The value was “didn't change”.

What about the “macroscopic or microscopic findings (local or systemic effects)” value [7] of the same compound?
The value was “no macroscopic or microscopic findings”.

And the “local histopathological changes in the intestinal tract (duodenum, jejunum, ileum and colon)” value ([7]; po)?
The value was “no local histopathological changes”.
